Experimental data published in ChEMBL document CHEMBL5528075, “Unleashing the Potential of Camptothecin: Exploring Innovative Strategies for Structural Modification and Therapeutic Advancements” (J Med Chem, 2024).
≈ marks a conversion by molar mass, not a printed value. Residues, ends and D or L forms follow the SMILES beside them. *: point of attachment. X1 = CC[C@@]1(OCCS*)C(=O)OCc2c1cc1n(c2=O)Cc2cc3ccccc3nc2-1

Key:
[1] = Stability in human plasma assessed as half life measured upto 24 hrs by UV/LC-MS analysis; type: ADME, cell-free
[2] = tested on: HCT-116; assay: Antitumor activity against human HCT-116 cells xenografted in mouse assessed as tumor growth inhibition at 5 mg/kg administered once for every 2 days for 2 weeks relative to control; type: functional; set-up: scale not given: the % may be the effect or the level left; settings: time 2 day
[3] = Aqueous solubility of compound at pH6.5; type: physicochemical; settings: pH 6.5
[4] = Ratio AUC in mouse tumor to plasma; type: ADME, cell-free; settings: tumor and plasma, read-out: Ratio AUC
[5] = tested on: HeLa; assay: cells; settings: Homo sapiens, 24 h
Description: Cytotoxicity against human HeLa cells assessed as reduction in cell viability measured for 24 hrs by SRB assay

[6] = tested on: L1210; assay: Cytotoxicity against mouse L1210 cells assessed as reduction in cell viability measured for 24 hrs by SRB assay; type: functional, cell-based; settings: L1210, 24 h
[7] = Toxicity in iv dosed mouse assessed as lethal dose; type: organism-based; settings: in vivo
[8] = tested on: A549; assay: Antiproliferative activity against human A549 cells assessed as reduction in cell viability measured after 72 hrs by MTT assay; type: functional, cell-based; settings: A549, 72 h
[9] = tested on: HCT-116; assay: Growth inhibition of human HCT-116 cells incubated for 72 hrs by MTT assay; type: functional
[10] = tested on: HeLa; assay: Cytotoxicity against human HeLa cells assessed as reduction in cell viability measured for 48 hrs by MTT assay; type: functional, cell-based
[11] = AUC in mouse at 8 mg/kg, iv; type: ADME, organism-based; settings: in vivo
[12] = Antiproliferative activity against human HCT116-SN6 cells assessed as reduction in cell viability measured after 72 hrs by MTT assay; type: functional, cell-based; settings: HCT116-SN6, 72 h
[13] = tested on: L1210; assay: Cytotoxicity against mouse L1210 cells assessed as reduction in cell viability measured for 24 hrs by MTT assay; type: functional, cell-based; settings: L1210, 24 h
[14] = Terminal half life in mouse at 8 mg/kg, iv; type: ADME, organism-based; settings: in vivo, read-out: beta t1/2
[15] = Toxicity in ip dosed mouse assessed as lethal dose; type: organism-based; settings: in vivo
[16] = tested on: HeLa; assay: cells; settings: Homo sapiens, 72 h
Description: Cytotoxicity against human HeLa cells assessed as reduction in cell growth incubated for 72 hrs by MTT assay

[17] = tested on: A549; assay: Growth inhibition of human A549 cells incubated for 72 hrs by MTT assay; type: functional
[18] = Toxicity in po dosed mouse assessed as lethal dose; type: organism-based; settings: in vivo
[19] = tested on: K562; assay: Growth inhibition of human K562 cells incubated for 72 hrs by MTT assay; type: functional
[20] = tested on: A549; assay: cells; settings: Homo sapiens, A549, 72 h
Description: Cytotoxicity against human A549 cells assessed as reduction in cell growth incubated for 72 hrs by MTT assay

[21] = tested on: HepG2; assay: Cytotoxicity against human HepG2 cells assessed as cell growth inhibition measured after 48 hrs by MTT assay; type: functional, cell-based; settings: HepG2, 48 h
[22] = Clearance in mouse at 8 mg/kg, iv; type: ADME, organism-based; settings: in vivo
[23] = tested on: A549; assay: cells; settings: Homo sapiens, A549, 48 h
Description: Cytotoxicity against human A549 cells assessed as reduction in cell viability measured after 48 hrs by MTT assay

[24] = tested on: MCF7; assay: Growth inhibition of human MCF7 cells incubated for 72 hrs by MTT assay; type: functional
[25] = tested on: HCT-116; assay: Cytotoxicity against human HCT-116 cells assessed as reduction in cell viability measured after 48 hrs by MTT assay; type: functional, cell-based; settings: HCT-116, 48 h
[26] = tested on: HCT-116; assay: Antiproliferative activity against human HCT-116 cells assessed as reduction in cell viability measured after 72 hrs by MTT assay; type: functional, cell-based; settings: HCT-116, 72 h
[27] = tested on: HCT-116; assay: cells; settings: Homo sapiens, HCT-116, 72 h
Description: Cytotoxicity against human HCT-116 cells assessed as reduction in cell growth incubated for 72 hrs by MTT assay

[28] = Aqueous solubility of compound at pH 7.4; type: physicochemical
[29] = Volume of distribution at steady state in mouse at 8 mg/kg, iv; type: ADME, organism-based; settings: in vivo, read-out: Vdss
[30] = Antiproliferative activity against human HCT116-G7 cells assessed as reduction in cell viability measured after 72 hrs by MTT assay; type: functional, cell-based; settings: HCT116-G7, 72 h
[31] = Primary half life in mouse at 8 mg/kg, iv; type: ADME, organism-based; settings: in vivo, read-out: alphat1/2
[32] = tested on: HepG2; assay: Cytotoxicity against human HepG2 cells assessed as reduction in cell growth incubated for 72 hrs by MTT assay; type: functional, cell-based; settings: HepG2, 72 h
[33] = tested on: K562; assay: Cytotoxicity against human K562 cells assessed as reduction in cell growth incubated for 48 hrs by MTT assay; type: functional, cell-based; settings: K562, 48 h
[34] = Antiproliferative activity against human NLF cells expressing ABCG2 assessed as reduction in cell viability measured for 72 hrs by MTT assay; type: functional, cell-based
[35] = Antiproliferative activity against human SK-N-BE(2)-C cells expressing ABCG2 assessed as reduction in cell viability measured for 72 hrs by MTT assay; type: functional, cell-based
[36] = tested on: L1210; assay: Antiproliferative activity against mouse L1210 cells assessed as inhibition of cell growth incubated for 24 hrs by MTT assay; type: functional, cell-based; settings: L1210, 24 h
[37] = tested on: HepG2; assay: Antiproliferative activity against human HepG2 cells assessed as reduction in cell viability measured for 48 hrs by CCK-8 assay; type: functional, cell-based; settings: HepG2, 48 h
[38] = tested on: HeLa; assay: Antiproliferative activity against human HeLa cells assessed as reduction in cell viability measured for 48 hrs by CCK-8 assay; type: functional, cell-based
[39] = tested on: K562; assay: Antiproliferative activity against human K562 cells assessed as reduction in cell viability measured for 48 hrs by CCK-8 assay; type: functional, cell-based; settings: K562, 48 h
[40] = tested on: HeLa; assay: Cytotoxicity against human HeLa cells assessed as reduction in cell growth measured after 72 hrs by MTT assay; type: functional, cell-based
[41] = tested on: A549; assay: Cytotoxicity against human A549 cells assessed as reduction in cell growth measured after 72 hrs by MTT assay; type: functional, cell-based; settings: A549, 72 h
[42] = tested on: HCT-116; assay: Cytotoxicity against human HCT-116 cells assessed as reduction in cell growth measured after 72 hrs by MTT assay; type: functional, cell-based; settings: HCT-116, 72 h
[43] = tested on: L1210; assay: Cytotoxicity against mouse L1210 cells assessed as reduction in cell growth measured after 72 hrs by MTT assay; type: functional, cell-based; settings: L1210, 72 h
[44] = Volume of distribution at steady state in mouse at 5 mg/kg, iv; type: ADME, organism-based; settings: in vivo, read-out: Vdss
[45] = target: T1, Neutrophil elastase (Homo sapiens, UniProt P08246); assay: Inhibition of human Neutrophil elastase
T1 sequence (P08246 whole entry): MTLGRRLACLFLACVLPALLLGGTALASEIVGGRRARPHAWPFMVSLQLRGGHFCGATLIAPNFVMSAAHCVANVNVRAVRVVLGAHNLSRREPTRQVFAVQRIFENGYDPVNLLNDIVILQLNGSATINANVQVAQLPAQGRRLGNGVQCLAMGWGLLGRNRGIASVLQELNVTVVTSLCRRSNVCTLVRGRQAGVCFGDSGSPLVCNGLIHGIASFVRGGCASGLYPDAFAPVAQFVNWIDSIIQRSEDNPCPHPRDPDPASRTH

[46] = Drug recovery in bile duct cannulated rat urine measured for 48 hrs
[47] = Drug recovery in bile duct cannulated rat bile measured for 48 hrs
[48] = target: T2, Neutrophil elastase (Mus musculus, UniProt Q3UP87); assay: Inhibition of mouse Neutrophil elastase
T2 sequence (Q3UP87 whole entry): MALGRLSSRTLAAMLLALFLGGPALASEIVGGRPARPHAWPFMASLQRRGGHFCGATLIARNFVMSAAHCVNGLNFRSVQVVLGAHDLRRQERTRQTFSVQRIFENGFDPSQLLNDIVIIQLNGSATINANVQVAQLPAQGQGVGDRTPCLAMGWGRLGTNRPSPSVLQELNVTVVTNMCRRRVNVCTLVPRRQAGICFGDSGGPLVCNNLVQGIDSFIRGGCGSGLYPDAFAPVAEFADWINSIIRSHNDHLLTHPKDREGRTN

CC[C@H](C)[C@H](NC(=O)[C@H](CCCCN)NC(=O)[C@H](CCCCN)NC(=O)[C@H](C)NC(=O)[C@H](CC(C)C)NC(=O)[C@H](C)NC(=O)[C@H](C)NC(=O)[C@H](CC(C)C)NC(=O)[C@@H](NC(=O)[C@H](CCCCN)NC(=O)[C@H](CC(C)C)NC(=O)[C@H](CC(N)=O)NC(=O)[C@H](CCCCN)NC(=O)[C@H](CCCCN)NC(=O)[C@H](CC(C)C)NC(=O)[C@H](CC(C)C)NC(=O)[C@@H](N)CCCCN)C(C)C)C(=O)N[C@@H](CC(C)C)C(=O)NCC(=O)NCC(=O)N[C@@H](CSSCCO[C@]1(CC)C(=O)OCc2c1cc1n(c2=O)Cc2cc3ccccc3nc2-1)C(N)=O (H-KLLKKNLKVLAALAKKILGGC(X1)-NH2)
half-life [1]: 2.5 h | Activity [2]: 98.2% | solubility [3]: 1.83 µM (≈ 4.81 µg/mL)

CC[C@@]1(O)C(=O)OCc2c1cc1n(c2=O)Cc2cc3ccc(O)cc3nc2-1
Kp [4]: 6.1

CCc1c2c(nc3ccc(OC(=O)N4CCC(N5CCCCC5)CC4)cc13)-c1cc3c(c(=O)n1C2)COC(=O)[C@]3(O)CC [IRINOTECAN]
IC50 [5]: 122 nM | IC50 [6]: 1200 nM

CC[C@@]1(O)C(=O)OCc2c1cc1n(c2=O)Cc2cc3ccccc3nc2-1 [CAMPTOTHECIN]
LD50 [7]: 38 mg/kg | EC50 [8]: 4.17 nM | GI50 [9]: 3.86 ng/mL (≈ 0.0111 µM) | IC50 [10]: 8.9 nM | AUC [11]: 212 µg/mL | EC50 [12]: 7.63 nM | IC50 [13]: 14 nM | half-life [14]: 4.6 h | LD50 [15]: 38 mg/kg | IC50 [16]: 8.9 ng/mL (≈ 0.0255 µM) | GI50 [17]: 5.69 ng/mL (≈ 0.0163 µM) | LD50 [18]: 50 mg/kg | GI50 [19]: 54.3 ng/mL (≈ 0.156 µM) | IC50 [20]: 0.32 ng/mL (≈ 0.000919 µM) | Activity [2]: 37.5% | IC50 [21]: 7.25 nM | clearance [22]: 38 mL/min/kg | IC50 [23]: 0.32 nM | GI50 [24]: 1.98 ng/mL (≈ 0.00568 µM) | IC50 [25]: 2.01 nM | EC50 [26]: 3.15 nM | IC50 [27]: 2.01 ng/mL (≈ 0.00577 µM) | solubility [28]: 1.83 µM (≈ 0.637 µg/mL) | Vd [29]: 10.8 L/kg | EC50 [30]: 20.3 nM | half-life [31]: 0.35 h | IC50 [32]: 7.25 ng/mL (≈ 0.0208 µM) | IC50 [33]: 2 nM

CCc1c2c(nc3ccccc13)-c1cc3c(c(=O)n1C2)COC(=O)[C@]3(O)CC
IC50 [34]: 80 nM | IC50 [35]: 7 nM

CC[C@@]1(O)C(=O)OCc2c1cc1n(c2=O)Cc2cc3cc4c(cc3nc2-1)OCO4
EC50 [8]: 0.86 nM | EC50 [12]: 2.28 nM | IC50 [16]: 40 ng/mL (≈ 0.102 µM) | IC50 [20]: 43 ng/mL (≈ 0.11 µM) | EC50 [26]: 0.36 nM | IC50 [27]: 50 ng/mL (≈ 0.127 µM) | EC50 [30]: 4.14 nM | IC50 [32]: 104 ng/mL (≈ 0.265 µM)

CC[C@@]1(O)C(=O)OCc2c1cc1n(c2=O)Cc2cc3c(CN(C)C)c(O)ccc3nc2-1 [TOPOTECAN]
IC50 [36]: 56 nM | IC50 [37]: 60 nM | IC50 [38]: 376 nM | IC50 [39]: 500 nM

CCc1c2c(nc3ccc(O)cc13)-c1cc3c(c(=O)n1C2)COC(=O)[C@]3(O)CC [7-ETHYL-10-HYDROXYCAMPTOTHECIN]
IC50 [40]: 22 nM | IC50 [41]: 1.62 nM | IC50 [42]: 0.55 nM | IC50 [43]: 8.9 nM

CC[C@@]1(O)C(=O)OCc2c1cc1n(c2=O)Cc2c-1nc1ccc(O)cc1c2[Si](C)(C)C(C)(C)C [AR-67]
Vd [44]: 0.73 L/kg

CC[C@@]1(O)C(=O)OCc2c1cc1n(c2=O)Cc2c-1nc1cc(F)c(C)c3c1c2[C@@H](N)CC3.CS(=O)(=O)O.O.O [EXATECAN MESYLATE]
GI50 [9]: 0.347 ng/mL | GI50 [17]: 0.914 ng/mL | GI50 [19]: 10.4 ng/mL | GI50 [24]: 0.322 ng/mL

CCCNC(=O)Nc1cccc(S(=O)(=O)Nc2cccc([C@@H](CC(=O)[O-])NC(=O)Nc3ccc(NC(=O)NCCOCCOCCOCCC(=O)N[C@@H](CC(=O)[O-])C(=O)N4CCC[C@H]4C(=O)N[C@H](C(=O)O[C@]4(CC)C(=O)OCc5c4cc4n(c5=O)Cc5c-4nc4ccccc4c5CC)C(C)C)cc3)c2)c1.[Na+].[Na+]
IC50 [45]: 9600 nM | dose excreted at 48 h [46]: 2.4% | dose excreted at 48 h [47]: 108% | IC50 [48]: 8900 nM
